Test system: 624824-186-R-J3-PDC multicell spheroids, viability
Experiment: Anticancer human tumor 624824-186-R-J3-PDC patient-derived colon adenocarcinoma cell line growth inhibition [PI3K]
Details: for IC50: curve of first compound; for viability, T/C: stronger effect = lower value
How it was run: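 Viability of mixed-cell spheroids was determined after exposure to pairwise combinations, one partner being inavolisib, alpelisib, duvelisib or copanlisib. Highest tested concentration matched clinical Cmax where known and 10 microM where not, descending in half-log steps.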

[1] = second compound 0.00316 µM, first compound 0.0316 µM
[2] = second compound 0.00316 µM, first compound 0.1 µM
[3] = second compound 0.00316 µM, first compound 0.316 µM
[4] = second compound 0.00316 µM, first compound 1 µM
[5] = second compound 0.00316 µM, first compound 3.16 µM
[6] = second compound 0.00316 µM, first compound 10 µM
[7] = second compound 0.01 µM, first compound 0.0316 µM
[8] = second compound 0.01 µM, first compound 0.1 µM
[9] = second compound 0.01 µM, first compound 0.316 µM
[10] = second compound 0.01 µM, first compound 1 µM
[11] = second compound 0.01 µM, first compound 3.16 µM
[12] = second compound 0.01 µM, first compound 10 µM
[13] = second compound 0.0316 µM, first compound 0.0316 µM
[14] = second compound 0.0316 µM, first compound 0.1 µM
[15] = second compound 0.0316 µM, first compound 0.316 µM
[16] = second compound 0.0316 µM, first compound 1 µM
[17] = second compound 0.0316 µM, first compound 3.16 µM
[18] = second compound 0.0316 µM, first compound 10 µM
[19] = second compound 0.1 µM, first compound 0.0316 µM
[20] = second compound 0.1 µM, first compound 0.1 µM
[21] = second compound 0.1 µM, first compound 0.316 µM
[22] = second compound 0.1 µM, first compound 1 µM
[23] = second compound 0.1 µM, first compound 3.16 µM
[24] = second compound 0.1 µM, first compound 10 µM
[25] = second compound 0.316 µM, first compound 0.0316 µM
[26] = second compound 0.316 µM, first compound 0.1 µM
[27] = second compound 0.316 µM, first compound 0.316 µM
[28] = second compound 0.316 µM, first compound 1 µM
[29] = second compound 0.316 µM, first compound 3.16 µM
[30] = second compound 0.316 µM, first compound 10 µM
[31] = second compound 1 µM, first compound 0.0316 µM
[32] = second compound 1 µM, first compound 0.1 µM
[33] = second compound 1 µM, first compound 0.316 µM
[34] = second compound 1 µM, first compound 1 µM
[35] = second compound 1 µM, first compound 3.16 µM
[36] = second compound 1 µM, first compound 10 µM
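Further: spheroids exposed to agents for seven days before luminescence read.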
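Wherever viability, T/C is given: luminescent signal used as a stand-in for spheroid viability; percent viability relative to DMSO vehicle control wells taken as 100%.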

For `CC1(C)CCC(Nc2ncc(C(F)(F)F)c(-c3c[nH]c4c(P(C)(C)=O)c(C#N)ccc34)n2)CN1` (stereo unspecified) + COc1c(OCCCN2CCOCC2)ccc2c3n(c(=NC(=O)c4cnc(N)nc4)nc12)CCN3, the IC50 (second compound 0.00316 µM) was 5420 nM, the IC50 (second compound 0.01 µM) was 5060 nM and the IC50 (second compound 0.0316 µM) was 3600 nM. The IC50 (second compound 0.1 µM) was less than 31.6 nM, the IC50 (second compound 0.316 µM) was less than 31.6 nM and the IC50 (second compound 1 µM) was less than 31.6 nM. For the same compound, the viability, T/C [1] was 103%, the viability, T/C [2] was 84.7% and the viability, T/C [3] was 87.1%. It also gave a viability, T/C [4] of 85%, a viability, T/C [5] of 95.1% and a viability, T/C [6] of 3.27%. It also gave a viability, T/C [7] of 90.8%, a viability, T/C [8] of 72.4% and a viability, T/C [9] of 76.6%. For the same compound, the viability, T/C [10] was 81.7%, the viability, T/C [11] was 89.5% and the viability, T/C [12] was 3.28%. The viability, T/C [13] was 59.7%, the viability, T/C [14] was 55.2% and the viability, T/C [15] was 54.9%. The viability, T/C [16] was 60.6%, the viability, T/C [17] was 55.9% and the viability, T/C [18] was 2.59%. For the same compound, the viability, T/C [19] was 41.8%, the viability, T/C [20] was 36.6% and the viability, T/C [21] was 40.8%. It also gave a viability, T/C [22] of 38.2%, a viability, T/C [23] of 37.9% and a viability, T/C [24] of 1.87%. For the same compound, the viability, T/C [25] was 28.5%, the viability, T/C [26] was 30.3% and the viability, T/C [27] was 28.9%. The viability, T/C [28] was 24.8%, the viability, T/C [29] was 24.7% and the viability, T/C [30] was 1.42%. It also gave a viability, T/C [31] of 19.4%, a viability, T/C [32] of 18.4% and a viability, T/C [33] of 19%. It also gave a viability, T/C [34] of 18.1%, a viability, T/C [35] of 18% and a viability, T/C [36] of 1.68%.

In the case of `Cn1ncc(Cl)c1-c1cc(C(=O)NC(CN)Cc2cccc(F)c2)sc1Cl` (stereo unspecified) + COc1c(OCCCN2CCOCC2)ccc2c3n(c(=NC(=O)c4cnc(N)nc4)nc12)CCN3, the IC50 (second compound 0.00316 µM) is reported as 9340 nM, the IC50 (second compound 0.01 µM) is reported as greater than 10000 nM and the IC50 (second compound 0.0316 µM) is reported as 4160 nM. It also gave an IC50 (second compound 0.1 µM) of 2590 nM, an IC50 (second compound 0.316 µM) of 455 nM and an IC50 (second compound 1 µM) of less than 31.6 nM. It also gave a viability, T/C [1] of 106%, a viability, T/C [2] of 96.6% and a viability, T/C [3] of 92%. For the same compound, the viability, T/C [4] was 74.8%, the viability, T/C [5] was 68.5% and the viability, T/C [6] was 47.2%. The viability, T/C [7] was 97.6%, the viability, T/C [8] was 99.3% and the viability, T/C [9] was 95%. For the same compound, the viability, T/C [10] was 71.1%, the viability, T/C [11] was 57.3% and the viability, T/C [12] was 48.6%. The viability, T/C [13] was 94.2%, the viability, T/C [14] was 96.4% and the viability, T/C [15] was 83.6%. The viability, T/C [16] was 82.5%, the viability, T/C [17] was 52.8% and the viability, T/C [18] was 37.2%. The viability, T/C [19] was 78.8%, the viability, T/C [20] was 80.5% and the viability, T/C [21] was 75.4%. It also gave a viability, T/C [22] of 60.9%, a viability, T/C [23] of 48.8% and a viability, T/C [24] of 33%. It also gave a viability, T/C [25] of 54.2%, a viability, T/C [26] of 54.5% and a viability, T/C [27] of 51.5%. It also gave a viability, T/C [28] of 46%, a viability, T/C [29] of 39.9% and a viability, T/C [30] of 25.9%. The viability, T/C [31] was 32.4%, the viability, T/C [32] was 26.8% and the viability, T/C [33] was 27.8%. It also gave a viability, T/C [34] of 32.2%, a viability, T/C [35] of 29.7% and a viability, T/C [36] of 21.7%.

`Cn1nccc1Nc1nccc(-c2ccn(C(CO)c3ccc(Cl)c(F)c3)c(=O)c2)n1` (stereo unspecified) + COc1c(OCCCN2CCOCC2)ccc2c3n(c(=NC(=O)c4cnc(N)nc4)nc12)CCN3 was tested, and the IC50 (second compound 0.00316 µM) was 6980 nM, the IC50 (second compound 0.01 µM) was 1360 nM and the IC50 (second compound 0.0316 µM) was 400 nM. The IC50 (second compound 0.1 µM) was 153 nM, the IC50 (second compound 0.316 µM) was less than 31.6 nM and the IC50 (second compound 1 µM) was less than 31.6 nM. The viability, T/C [1] was 111%, the viability, T/C [2] was 84.7% and the viability, T/C [3] was 100%. For the same compound, the viability, T/C [4] was 72.8%, the viability, T/C [5] was 57.7% and the viability, T/C [6] was 46.6%. It also gave a viability, T/C [7] of 112%, a viability, T/C [8] of 100% and a viability, T/C [9] of 87.5%. The viability, T/C [10] was 51.4%, the viability, T/C [11] was 41.8% and the viability, T/C [12] was 34.4%. It also gave a viability, T/C [13] of 90.2%, a viability, T/C [14] of 83.8% and a viability, T/C [15] of 56.2%. The viability, T/C [16] was 26.4%, the viability, T/C [17] was 25.1% and the viability, T/C [18] was 21.8%. It also gave a viability, T/C [19] of 74.5%, a viability, T/C [20] of 58% and a viability, T/C [21] of 35.9%. For the same compound, the viability, T/C [22] was 14.2%, the viability, T/C [23] was 10.7% and the viability, T/C [24] was 9.81%. For the same compound, the viability, T/C [25] was 46.3%, the viability, T/C [26] was 38.4% and the viability, T/C [27] was 18.3%. For the same compound, the viability, T/C [28] was 7.62%, the viability, T/C [29] was 4.31% and the viability, T/C [30] was 2.66%. The viability, T/C [31] was 26%, the viability, T/C [32] was 20.9% and the viability, T/C [33] was 13.4%. It also gave a viability, T/C [34] of 6.73%, a viability, T/C [35] of 3.58% and a viability, T/C [36] of 2.38%.

Source: PubChem BioAssay AID1963977 (Molecular Pharmacology Branch, DTP, NCI, 2024)
